Results published in ChEMBL document CHEMBL1201862, “PubChem BioAssay data set” (2004).
The source made the active and inactive calls. Cut-off read from the data, not from the text of the source, for most assays here: actives have a measured EC50 and inactives only a lower limit.

Key:
[1] = target: ATP-dependent molecular chaperone HSP82 (Candida albicans (strain WO-1) (Yeast), UniProt C4YTQ8); assay: loss of DOC-induced GRE-beta-galactosidase reporter signal, dose response, Hsp90 inhibitor project, S. cerevisiae, luminescence (AID 2400); type: functional, cell-based;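 note: beta-galactosidase luminescence from glucocorticoid response element reporter as proxy for Hsp90 function; inhibitor potency where signal loss means Hsp90 inhibition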
[2] = cytotoxicity toward NIH3T3 fibroblasts, dose response, counter-screen, cell-based, ATP luminescence, mouse fibroblasts (AID 2010); type: functional;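 note: cells exposed to compound for about 90 hours before reading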
[3] = tested on: Streptococcus sp. 'group A'; assay: growth inhibition of control SK(-) GAS strain, dose response, counter-screen for streptokinase expression inhibitor project, luminescence, kanamycin, BacTiterGlo, confirmation (AID 1900); type: functional, organism-based
[4] = tested on: Streptococcus; assay: Group A Streptococcus viability loss, dose response, counter-screen for streptokinase expression inhibitor project, luminescence, BacTiterGlo (AID 1915); type: functional, organism-based;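 note: potency for reduction of bacterial viability or growth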
[5] = tested on: INS1; assay: beta cell apoptosis inhibitors, cytokine rescue, dose response, luminescence, retest (AID 449756); type: functional, cell-based; details: Rattus norvegicus;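 note: cell death triggered by IL-1 beta plus TNF-alpha plus IFN-gamma mixture; protective hits raise ATP signal compared with cytokine alone wells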
[6] = target: T1, Serine/threonine-protein phosphatase (Candida dubliniensis (strain CD36 / CBS 7987 / NCPF 3949 / NRRLY-17841) (Yeast), UniProt B9W6M3); assay: calcineurin pathway inhibitors in yeast reporter, dose response, S. cerevisiae, CDRE-lacZ, luminescence, secondary (AID 2388); type: functional, cell-based;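 note: yeast reporter cells carrying a calcineurin-responsive lacZ construct stimulated with calcium chloride; luminescent beta-galactosidase reporter signal in whole cells rather than isolated phosphatase activity; potency for inhibition where a drop in reporter signal means calcineurin blockade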
T1 sequence (B9W6M3 whole entry): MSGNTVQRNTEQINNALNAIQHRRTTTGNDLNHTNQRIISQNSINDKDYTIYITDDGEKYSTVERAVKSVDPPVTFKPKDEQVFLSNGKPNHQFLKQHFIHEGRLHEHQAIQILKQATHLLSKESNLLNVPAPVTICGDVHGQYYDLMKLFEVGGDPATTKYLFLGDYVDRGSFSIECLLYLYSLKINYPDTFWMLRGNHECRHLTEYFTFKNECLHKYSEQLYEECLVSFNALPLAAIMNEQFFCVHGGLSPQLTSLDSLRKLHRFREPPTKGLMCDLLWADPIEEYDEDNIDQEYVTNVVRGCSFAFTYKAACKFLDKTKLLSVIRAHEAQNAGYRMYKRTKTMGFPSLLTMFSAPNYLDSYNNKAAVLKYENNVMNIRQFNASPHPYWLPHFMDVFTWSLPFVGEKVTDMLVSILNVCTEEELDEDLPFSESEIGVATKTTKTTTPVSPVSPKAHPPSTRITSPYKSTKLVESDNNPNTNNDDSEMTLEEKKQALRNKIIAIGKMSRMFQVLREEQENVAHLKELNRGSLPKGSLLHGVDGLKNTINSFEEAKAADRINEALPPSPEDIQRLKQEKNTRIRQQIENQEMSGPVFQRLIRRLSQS

[7] = inhibitors of intracellular T. cruzi replication, confirmation, NIH3T3 host cells, beta-gal luminescence (AID 2044); type: functional, cell-based;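 note: intracellular parasites grown in NIH/3T3 mouse fibroblasts as host cells; luminescent beta-galactosidase reporter signal from transgenic T. cruzi replicating inside host cells; inhibitors lower the luminescence signal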
[8] = target: Heat shock protein HSP 90-alpha (Homo sapiens, UniProt P07900); type: functional, organism-based
[9] = tested on: HEK293; assay: inhibitors of LMP1-driven NF-kB reporter, dose response, cell-based, HEK293, luciferase, cherry-pick (AID 588343); type: functional; details: Homo sapiens
[10] = target: T2, Replicative DNA helicase DnaB (Mycobacterium tuberculosis, UniProt P9WMR3); assay: DnaB intein splicing inhibitors, dose response, biochemical, cell-free fluorescence (AID 449749); type: functional
T2 sequence (P9WMR3 whole entry): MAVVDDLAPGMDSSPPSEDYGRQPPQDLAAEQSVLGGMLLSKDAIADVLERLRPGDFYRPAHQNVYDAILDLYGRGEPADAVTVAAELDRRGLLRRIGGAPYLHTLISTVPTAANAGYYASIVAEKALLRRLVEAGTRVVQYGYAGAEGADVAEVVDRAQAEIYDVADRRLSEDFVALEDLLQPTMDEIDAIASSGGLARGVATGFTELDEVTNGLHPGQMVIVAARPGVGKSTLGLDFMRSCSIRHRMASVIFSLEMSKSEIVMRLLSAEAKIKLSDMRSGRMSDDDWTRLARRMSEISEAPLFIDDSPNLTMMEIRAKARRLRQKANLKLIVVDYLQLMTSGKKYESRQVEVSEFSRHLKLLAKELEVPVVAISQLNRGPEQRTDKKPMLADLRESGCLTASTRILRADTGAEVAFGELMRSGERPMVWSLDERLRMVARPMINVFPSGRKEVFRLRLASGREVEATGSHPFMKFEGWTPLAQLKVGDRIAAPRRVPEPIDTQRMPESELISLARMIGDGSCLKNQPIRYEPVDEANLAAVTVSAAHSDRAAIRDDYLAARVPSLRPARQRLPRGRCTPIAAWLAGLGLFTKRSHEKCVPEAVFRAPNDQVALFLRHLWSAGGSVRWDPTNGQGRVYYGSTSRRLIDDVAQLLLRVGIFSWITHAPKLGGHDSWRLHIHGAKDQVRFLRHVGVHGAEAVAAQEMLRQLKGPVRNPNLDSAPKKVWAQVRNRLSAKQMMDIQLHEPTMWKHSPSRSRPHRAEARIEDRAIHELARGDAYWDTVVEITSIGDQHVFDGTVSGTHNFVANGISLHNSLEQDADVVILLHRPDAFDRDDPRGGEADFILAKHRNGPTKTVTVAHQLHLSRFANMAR

[11] = target: T3, Protein RecA (Mycobacterium tuberculosis, UniProt P9WHJ3); assay: Fluorescence Cell-Free Homogeneous Dose Retest to Identify Inhibitors of RecA-Intein Splicing Activity. [Related pubchem assays (depositor defined):AID2097, AID2223, AID489010, AID492950]; type: functional
T3 sequence (P9WHJ3 whole entry): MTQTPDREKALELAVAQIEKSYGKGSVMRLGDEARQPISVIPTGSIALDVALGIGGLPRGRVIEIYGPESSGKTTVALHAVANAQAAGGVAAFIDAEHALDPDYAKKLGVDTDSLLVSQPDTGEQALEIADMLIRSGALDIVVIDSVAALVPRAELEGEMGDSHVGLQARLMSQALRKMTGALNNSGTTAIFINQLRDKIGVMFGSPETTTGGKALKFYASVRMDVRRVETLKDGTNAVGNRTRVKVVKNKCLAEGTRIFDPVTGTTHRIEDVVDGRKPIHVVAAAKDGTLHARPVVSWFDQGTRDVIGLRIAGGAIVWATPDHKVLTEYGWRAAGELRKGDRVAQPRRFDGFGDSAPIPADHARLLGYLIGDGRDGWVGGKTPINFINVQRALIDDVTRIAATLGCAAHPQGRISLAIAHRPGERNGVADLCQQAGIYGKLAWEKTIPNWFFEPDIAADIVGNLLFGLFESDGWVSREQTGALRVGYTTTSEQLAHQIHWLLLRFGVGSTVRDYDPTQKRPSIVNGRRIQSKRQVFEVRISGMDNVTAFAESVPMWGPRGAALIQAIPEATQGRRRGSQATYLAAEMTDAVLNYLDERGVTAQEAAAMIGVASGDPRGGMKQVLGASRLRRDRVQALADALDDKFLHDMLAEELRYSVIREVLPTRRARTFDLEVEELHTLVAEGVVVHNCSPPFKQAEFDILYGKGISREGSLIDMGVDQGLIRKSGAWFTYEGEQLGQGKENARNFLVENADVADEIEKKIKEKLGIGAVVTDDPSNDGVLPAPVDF

Chain of ATP-dependent molecular chaperone HSP82 (C4YTQ8 whole entry): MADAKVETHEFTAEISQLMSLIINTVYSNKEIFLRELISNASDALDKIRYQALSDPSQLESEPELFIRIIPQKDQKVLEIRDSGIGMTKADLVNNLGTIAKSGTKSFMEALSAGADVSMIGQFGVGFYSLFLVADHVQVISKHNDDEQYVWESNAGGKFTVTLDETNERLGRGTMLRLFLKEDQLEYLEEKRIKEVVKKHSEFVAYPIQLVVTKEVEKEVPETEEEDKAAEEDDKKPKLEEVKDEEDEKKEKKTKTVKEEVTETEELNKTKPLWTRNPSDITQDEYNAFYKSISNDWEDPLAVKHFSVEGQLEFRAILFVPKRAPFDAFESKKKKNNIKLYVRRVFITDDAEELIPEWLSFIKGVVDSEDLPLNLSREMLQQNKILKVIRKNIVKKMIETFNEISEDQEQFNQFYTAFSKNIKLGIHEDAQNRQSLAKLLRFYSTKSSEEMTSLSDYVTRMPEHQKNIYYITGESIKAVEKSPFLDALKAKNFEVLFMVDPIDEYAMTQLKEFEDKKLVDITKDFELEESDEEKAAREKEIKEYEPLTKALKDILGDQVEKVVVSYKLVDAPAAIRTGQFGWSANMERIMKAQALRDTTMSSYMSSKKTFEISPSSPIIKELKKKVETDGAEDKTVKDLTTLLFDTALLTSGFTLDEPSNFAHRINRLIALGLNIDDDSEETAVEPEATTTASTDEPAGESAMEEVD

CCCCC(=O)NC(c1ccco1)c1cc(Cl)c2cccnc2c1O (centres undefined)
active: EC50 [2] 3.65 µM | EC50 [3] 4 µM | EC50 [4] 8.22 µM | AC50 [5] 2.74 µM | EC50 [7] 1.91 µM | AC50 [8] 4.37 µM
inactive: EC50 [1] > 160 µM | EC50 [6] > 180 µM

CCCCC(=O)NC(c1ccc(Cl)cc1)c1ccc2cccnc2c1O (centres undefined)
active: AC50 [9] 4.59 µM | EC50 [1] 29.1 µM | EC50 [2] 0.617 µM | AC50 [5] 0.476 µM | EC50 [6] 24.8 µM | EC50 [7] 0.268 µM | AC50 [8] 15 µM

COc1ccc2noc3c2c1C(=O)c1ccccc1-3
inconclusive: AC50 [10] 1.18 µM
active: EC50 [11] 3.61 µM

CCc1ccc2c(c1)C(NC(C)=O)C(=O)N2CCN1CCOCC1 (centres undefined)
active: AC50 [10] 22.3 µM | EC50 [11] 16.8 µM

O=C(N/N=C/c1ccccc1O)/C(O)=C\C1=NC2(CCCC2)Cc2ccccc21
active: AC50 [9] 33.4 µM | EC50 [1] 22.1 µM | EC50 [3] 3.18 µM | EC50 [4] 11.2 µM
inactive: EC50 [6] > 180 µM
